The target of one test is recombinant human nicotinic acid receptor (NAR) (Homo sapiens, UniProt Q8TDS4). The experiment in a line: Nicotinic Acid Receptor Assay: inhibition of forskolin-stimulated cAMP accumulation in CHO cells (MesoScale Discovery cAMP kit). The test is classed as cell-based. The note with it: CHO cells expressing recombinant human NAR; forskolin-stimulated cAMP; read-out: NA EC50 camp. The essentials: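 Compounds were diluted in PBS containing 6 μM forskolin and incubated with cells for 30 min at room temperature. cAMP was quantified by the MesoScale kit against an on-plate standard curve.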
recombinant human nicotinic acid receptor (NAR), sequence (Q8TDS4 whole entry): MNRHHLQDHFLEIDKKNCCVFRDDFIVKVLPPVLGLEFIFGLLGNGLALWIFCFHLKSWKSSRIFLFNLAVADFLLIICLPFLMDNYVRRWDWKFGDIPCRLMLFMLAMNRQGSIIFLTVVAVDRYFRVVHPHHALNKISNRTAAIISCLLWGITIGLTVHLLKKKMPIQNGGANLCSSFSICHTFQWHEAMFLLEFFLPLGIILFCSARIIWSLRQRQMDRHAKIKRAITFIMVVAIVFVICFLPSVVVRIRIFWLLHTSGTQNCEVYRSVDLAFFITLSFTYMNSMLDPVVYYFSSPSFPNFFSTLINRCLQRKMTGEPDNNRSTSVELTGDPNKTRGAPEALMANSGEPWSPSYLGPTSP
(Cyclic AMP is a second messenger, typically raised through Gs and lowered through Gi signalling.)
For `O=c1[nH]c(=O)c2c(CC3CCC4CC34)cc(=O)oc2[nH]1` (stereo not shown) [Compound 235], the EC50 lay within 0.001 to 100 nM.

Consider `CCc1cc(=O)oc2nc(OCC[Si](C)(C)C)[nH]c(=O)c12` [Compound 637], for which the EC50 fell in the range of 100 to 1000 nM.

For the compound `CCc1cc(=O)oc2nc(OCc3cccc(-c4ccccc4)n3)[nH]c(=O)c12` [Compound 520], the EC50 was above 1000 nM.

`CC(C)(C#N)CCCc1cc(=O)oc2[nH]c(=O)[nH]c(=O)c12` [Compound 288]: the EC50 was above 1000 nM.

As to `CCc1cc(=O)oc2nc(OCCN(C)C)[nH]c(=O)c12` [Compound 652], the EC50 lay in the range of 0.001 to 100 nM.

For the compound `CC(=O)NCCCc1cc(=O)oc2[nH]c(=O)[nH]c(=O)c12` [Compound 237], the EC50 was above 1000 nM.

Turning to `CCc1cc(=O)oc2nc(O[C@H](C)C#CC(=O)OCc3ccccc3)[nH]c(=O)c12` [Compound 635], the EC50 was above 1000 nM.

`CCc1cc(=O)oc2nc(OCC#Cc3ccccc3)[nH]c(=O)c12` [Compound 522]: the EC50 lay in the range of 100 to 1000 nM.

With `CCC(CC)Cc1cc(=O)oc2[nH]c(=O)[nH]c(=O)c12` [Compound 267], the EC50 is above 1000 nM.

Take `CCc1cc(=O)oc2nc(OCc3ccccc3-c3cccc(COC)c3)[nH]c(=O)c12` [Compound 549]: the EC50 lay in the range of 100 to 1000 nM.

As to `CCC(C)CCc1cc(=O)oc2[nH]c(=O)[nH]c(=O)c12` (stereo not shown) [Compound 247], the EC50 lay in the range of 0.001 to 100 nM.

On to `CCc1cc(=O)oc2nc(OCc3ccc(C)cc3C)[nH]c(=O)c12` [Compound 504], for which the EC50 was 100 to 1000 nM.

As for `CC(C)CCc1cc(=O)oc2[nH]c(=O)n(CC3CC3)c(=O)c12` [Compound 260], the EC50 is above 1000 nM.

`CCc1cc(=O)oc2nc(OCc3ccc(C#N)cc3)[nH]c(=O)c12` [Compound 630]: the EC50 is above 1000 nM.

As for `CCOC(=O)NOc1nc2oc(=O)cc(CCC3CCCC3)c2c(=O)[nH]1` [Compound 693], the EC50 is 100 to 1000 nM.

With `CCc1cc(=O)oc2nc(OCc3ccc(-n4cncn4)cc3)[nH]c(=O)c12` [Compound 628], the EC50 is above 1000 nM.

For the compound `CCc1cc(=O)oc2nc(OCc3ccc(C)c(C(F)(F)F)c3)[nH]c(=O)c12` [Compound 516], the EC50 is above 1000 nM.

As for `CCc1cc(=O)oc2nc(OCc3cccc(C(F)(F)F)n3)[nH]c(=O)c12` [Compound 568], the EC50 lay within 100 to 1000 nM.

Turning to `CCc1cc(=O)oc2nc(OCc3ccncc3)[nH]c(=O)c12` [Compound 523], the EC50 fell in the range of 0.001 to 100 nM.

In the case of `CCc1cc(=O)oc2nc(OCc3ncccc3C)[nH]c(=O)c12` [Compound 556], the EC50 was above 1000 nM.

For the compound `CCc1cc(=O)oc2nc(OCc3ccc(-c4ccccn4)s3)[nH]c(=O)c12` [Compound 648], the EC50 was in the range of 100 to 1000 nM.

For the compound `CCCCc1cc(=O)oc2nc(OCC#CC(C)O)[nH]c(=O)c12` (stereo not shown) [Compound 680], the EC50 lay in the range of 0.001 to 100 nM.

Regarding `CCc1cc(=O)oc2nc(OCc3conc3C)[nH]c(=O)c12` [Compound 665], the EC50 is above 1000 nM.

As to `CCc1cc(=O)oc2nc(OCc3ccnc(NC(=O)C(C)(C)C)c3)[nH]c(=O)c12` [Compound 653], the EC50 is above 1000 nM.

On to `CCc1cc(=O)oc2nc(O[C@H](C)c3ccc4ccccc4c3)[nH]c(=O)c12` [Compound 500], for which the EC50 is 100 to 1000 nM.

`CCc1cc(=O)oc2nc(OCc3cccc(-c4ccccc4Cl)c3)[nH]c(=O)c12` [Compound 564]: the half-maximal effective concentration (EC50) fell in the range of 100 to 1000 nM.

Regarding `O=c1[nH]c(=O)c2c(C3CCCCC3)cc(=O)oc2[nH]1` [Compound 212], the EC50 was in the range of 100 to 1000 nM.

For the compound `O=c1[nH]c(=O)c2c(CC3CC3)cc(=O)oc2[nH]1` [Compound 206], the EC50 was in the range of 100 to 1000 nM.

As to `CCc1cc(=O)oc2nc(OCCSc3ccccn3)[nH]c(=O)c12` [Compound 655], the EC50 was in the range of 100 to 1000 nM.

`COc1ccc(-c2ccc(Cc3cc(=O)oc4[nH]c(=O)[nH]c(=O)c34)cc2)cc1` [Compound 207]: the EC50 was above 1000 nM.

With `CCCCc1cc(=O)oc2nc(OCc3ccccn3)[nH]c(=O)c12` [Compound 682], the EC50 was above 1000 nM.

Consider `CCc1cc(=O)oc2nc(OC(C)c3ccc(-c4ccccc4)cc3F)[nH]c(=O)c12` (stereo not shown) [Compound 569], for which the EC50 lay within 0.001 to 100 nM.

On to `CC(Cc1cc(=O)oc2[nH]c(=O)[nH]c(=O)c12)CC(C)(C)C` (stereo not shown) [Compound 248], for which the EC50 was above 1000 nM.

Turning to `O=c1[nH]c(=O)c2c(CCCOc3ccccc3)cc(=O)oc2[nH]1` [Compound 208], the EC50 was above 1000 nM.

With `COCCCc1cc(=O)oc2[nH]c(=O)[nH]c(=O)c12` [Compound 209], the EC50 fell in the range of 100 to 1000 nM.

On to `CCc1cc(=O)oc2nc(OC[C@@H](OC)c3ccccc3)[nH]c(=O)c12` [Compound 618], for which the EC50 is 100 to 1000 nM.

Regarding `CCOC(=O)Cn1cc(CCCc2cc(=O)oc3[nH]c(=O)[nH]c(=O)c23)nn1` [Compound 250], the EC50 was above 1000 nM.

As for `N#CC1(CCCc2cc(=O)oc3[nH]c(=O)[nH]c(=O)c23)CC1` [Compound 294], the concentration for a half-maximal effect (EC50) lay in the range of 100 to 1000 nM.

Take `CCc1cc(=O)oc2nc(OCc3ccc(-c4ccccc4)cc3)[nH]c(=O)c12` [Compound 517]: the EC50 is above 1000 nM.

Take `O=c1[nH]c(=O)c2c3c(c(=O)oc2[nH]1)CCCCCC3` [Compound 211]: the EC50 was above 1000 nM.

Turning to `Cc1cc(=O)oc2[nH]c(=O)n(C3CCC3)c(=O)c12` [Compound 252], the EC50 is 0.001 to 100 nM.

With `CCc1cc(=O)oc2nc(OCc3cc(Br)cs3)[nH]c(=O)c12` [Compound 534], the EC50 fell in the range of 100 to 1000 nM.

As for `CCc1cc(=O)oc2nc(OCC#Cc3cccc(Cl)c3)[nH]c(=O)c12` [Compound 626], the EC50 lay in the range of 0.001 to 100 nM.

`CN(C)CCOc1nc2oc(=O)cc(Cc3cccc(F)c3)c2c(=O)[nH]1` [Compound 683]: the EC50 is above 1000 nM.

Turning to `CCCCCCc1cc(=O)oc2nc(ONC(=O)OCC)[nH]c(=O)c12` [Compound 692], the EC50 was 0.001 to 100 nM.

`CCc1cc(=O)oc2nc(OCC#Cc3ccccc3Cl)[nH]c(=O)c12` [Compound 623]: the EC50 was in the range of 0.001 to 100 nM.

Take `O=c1[nH]c(=O)c2c(CCC34CC5CC(CC(C5)C3)C4)cc(=O)oc2[nH]1` [Compound 215]: the EC50 was above 1000 nM.

`CCCCc1c(-c2ccc(NC(C)=O)cc2)c(=O)oc2[nH]c(=O)[nH]c(=O)c12` [Compound 710]: the EC50 is above 1000 nM.

Consider `CCc1cc(=O)oc2nc(OCCCS(C)(=O)=O)[nH]c(=O)c12` [Compound 650], for which the EC50 was in the range of 100 to 1000 nM.

Consider `COc1ccc(-c2cc(CCCc3cc(=O)oc4[nH]c(=O)[nH]c(=O)c34)on2)cc1` [Compound 261], for which the EC50 was in the range of 100 to 1000 nM.

For `CCCCc1cc(=O)oc2nc(OCCOC)[nH]c(=O)c12` [Compound 660], the EC50 is above 1000 nM.

Turning to `O=c1[nH]c(=O)c2c(CCCOCC3CC3)cc(=O)oc2[nH]1` [Compound 273], the EC50 was 100 to 1000 nM.

As to `CC(C)(C)Cc1cc(=O)oc2[nH]c(=O)[nH]c(=O)c12` [Compound 240], the EC50 was above 1000 nM.

Take `O=c1cc(CCC2CC2)c2c(=O)[nH]c(=O)n(C3CCC3)c2o1` [Compound 274]: the EC50 lay in the range of 100 to 1000 nM.

As to `CCCCc1c(-c2ccc(C#N)cc2)c(=O)oc2[nH]c(=O)[nH]c(=O)c12` [Compound 709], the EC50 is above 1000 nM.

Turning to `CCc1cc(=O)oc2nc(O[C@@H](C)c3ccc4ccccc4c3)[nH]c(=O)c12` [Compound 501], the EC50 fell in the range of 0.001 to 100 nM.

As to `CCc1cc(=O)oc2nc(OC[C@H](C)OC)[nH]c(=O)c12` [Compound 632], the EC50 lay in the range of 100 to 1000 nM.

Staying with this test, now noted: NA EC50 camp (nM), CHO cells expressing recombinant human NAR; forskolin-stimulated cAMP.
Turning to `CCc1cc(=O)oc2nc(OCC#CCCCO)[nH]c(=O)c12` [Compound 645], the EC50 lay in the range of 0.001 to 100 nM.

As to `CC#CCCOc1nc2oc(=O)cc(CC)c2c(=O)[nH]1` [Compound 590], the EC50 was 100 to 1000 nM.

On to `CCOCCOc1nc2oc(=O)cc(CC)c2c(=O)[nH]1` [Compound 580], for which the EC50 was above 1000 nM.

In the case of `C#CCOc1nc2oc(=O)cc(CC)c2c(=O)[nH]1` [Compound 555], the EC50 was in the range of 100 to 1000 nM.

Staying with this test, now noted: inhibition of forskolin-stimulated cAMP accumulation, CHO cells expressing recombinant human NAR; read-out: NA EC50 camp.
`CCC(C)CCc1cc(=O)oc2nc(C(F)F)[nH]c(=O)c12` (stereo not shown) [Compound 812]: the EC50 came to 40 nM.

As for `CCOc1nc(=O)[nH]c2oc(=O)cc(CCC3CCC3)c12` [Compound 786], the EC50 worked out at 5330 nM.

`O=c1[nH]c(=O)c2c(CC3CCCC3)cc(=O)oc2[nH]1` [Compound 104]: the EC50 is 47 nM.

Consider `COn1c(=O)nc(OCCF)c2c(CCC3CCC3)cc(=O)oc21` [Compound 826], for which the EC50 was 3250 nM.

Regarding `CCc1cc(=O)oc2nc(OCC#CCCOC)[nH]c(=O)c12` [Compound 726], the EC50 is 219 nM.

Take `CCCCc1cc(=O)oc2[nH]c(=O)nc(OCCF)c12` [Compound 827]: the EC50 was 690 nM.

Turning to `O=c1cc(CCC2CCCC2)c2c(=O)[nH]c(C(F)(F)F)nc2o1` [Compound 763], the EC50 is 7730 nM.

For the compound `CCCC#CCOc1nc2oc(=O)cc(CCC3CC3)c2c(=O)[nH]1` [Compound 721], the EC50 was determined as 226 nM.

For `CCCCc1cc(=O)oc2nc(C(F)(F)F)[nH]c(=O)c12` [Compound 764], the EC50 came out at 8920 nM.

Regarding `CCCCc1cc(=O)oc2[nH]c(=O)[nH]c(=O)c12` [Compound 102], the EC50 was 31 nM.

For `CCc1cc(=O)oc2nc(OCC#CC(C)O)[nH]c(=O)c12` (stereo not shown) [Compound 729], the EC50 is 49.9 nM.

For the compound `CCc1cc(=O)oc2[nH]c(=O)n(CCF)c(=O)c12` [Compound 819], the EC50 turned out to be 1540 nM.

`CCCCc1cc(=O)oc2[nH]c(=O)n(CCF)c(=O)c12` [Compound 818]: the EC50 was determined as 308 nM.

On to `CC#CCOc1nc2oc(=O)cc(CCCC3CC3)c2c(=O)[nH]1` [Compound 717], for which the EC50 is 259 nM.

In the case of `CCCCc1cc(=O)oc2c1c(=O)[nH]c(=O)n2N1CCOCC1` [Compound 796], the EC50 was above 10000 nM.

Consider `O=c1[nH]c(=O)c2c(CCCCC(F)(F)F)cc(=O)oc2[nH]1` [Compound 112], for which the 50% effective concentration (EC50) amounted to 14.4 nM.

Turning to `CCCCc1cc(=O)oc2[nH]c(=O)n(N3CCOCC3)c(=O)c12` [Compound 797], the EC50 is above 1000 nM.

In the case of `CCc1cc(=O)oc2nc(OC(C)c3ccccc3F)[nH]c(=O)c12` (stereo not shown) [Compound 90], the EC50 turned out to be 475 nM.

The term EC50 denotes the concentration giving half of the maximal effect.

Source of the values: patent US7737155B2, “Nitrogen-containing heterocyclic compounds and methods of use thereof” (Schering Corporation, priority 2005, dated 2010).
